From publication PMC8838037, “Design, Synthesis and Molecular Docking Study of Novel 3-Phenyl-β-Alanine-Based Oxadiazole Analogues as Potent Carbonic Anhydrase II Inhibitors” (Molecules, 2022) come the findings set out here.

As usually defined, the % Inhibition is the change of the read-out against control, counted positive when it falls. Lower therefore signals little suppression. A word on the IC50: it is the concentration that inhibits the measured activity by half. A high value points to weaker potency.

The assay addresses T1, bovine erythrocyte CA-II (Bos taurus, UniProt P00921).
T1 construct: purified bovine erythrocyte CA-II; from tissue; host or cells: bovine erythrocytes
In words: Carbonic anhydrase II inhibition assay (colorimetric, 4-nitrophenyl acetate substrate). The class given is biochemical. The following applies: for % Inhibition: test concentration not given; for IC50: N/A = Not active. As for the experimental part:
20 µL of tested compounds were incubated with the enzyme carbonic anhydrase II (EC 4.2.1.1) for 15 min in 96-well flat bottom plate. The rate of product formation was monitored with the addition of 20 µL of 4-NPA as substrate, prepared in ethanol at the final concentration of 0.7 mM at 25 °C for 30 min with regular intervals of 1 min, by using spectrophotometer (xMark^TM Microplate, Bio-Rad, Hercules, CA, USA). HEPES-tris was used as a buffer for the reaction at the final concentration of 20 mM at pH 7.4.

T1 sequence (P00921 2-260): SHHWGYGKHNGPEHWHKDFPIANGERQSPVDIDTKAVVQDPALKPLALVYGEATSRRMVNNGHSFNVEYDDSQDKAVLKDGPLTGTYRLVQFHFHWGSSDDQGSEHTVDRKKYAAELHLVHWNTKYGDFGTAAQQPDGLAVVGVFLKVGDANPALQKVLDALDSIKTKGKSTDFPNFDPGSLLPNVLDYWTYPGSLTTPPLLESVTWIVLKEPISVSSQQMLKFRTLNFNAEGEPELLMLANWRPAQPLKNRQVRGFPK

“Tert-Butyl(S)-(2-(5-(4-methoxyphenyl)-1,3,4-oxadiazol-2-yl)-1-phenylethyl) carbamate [Compound 4d]”: the “% Inhibition” value amounted to 29.0%. Regarding `COc1ccc(-c2nnc(C[C@H](NC(=O)OC(C)(C)C)c3ccccc3)o2)cc1OC` [Compound 4j, Tert-Butyl (S)-(2-(5-(3,4-dimethoxyphenyl)-1,3,4-oxadiazol-2-yl)-1-phenylethyl) carbamate], the midpoint of inhibition, the IC50, lay at 26.6 ± 1.47 µM and the “% Inhibition” value is given as 96.7%. Turning to `CC(C)(C)OC(=O)N[C@@H](Cc1nnc(-c2ccc(O)cc2)o1)c1ccccc1` [Compound 4i, Tert-Butyl (S)-(2-(5-(4-hydroxyphenyl)-1,3,4-oxadiazol-2-yl)-1-phenylethyl) carbamate], the midpoint of inhibition, the IC50, lay at 18.1 ± 1.31 µM and the “% Inhibition” value is listed as 58.0%.

`CC(C)(C)OC(=O)N[C@@H](Cc1nnc(-c2ccccn2)o1)c1ccccc1` [Compound 4a, Tert-Butyl (S)-(1-phenyl-2-(5-(pyridin-2-yl)-1,3,4-oxadiazol-2-yl)ethyl) carbamate]: the midpoint of inhibition, the IC50, lay at 12.1 ± 0.86 µM and the “% Inhibition” value amounted to 96.2%.

For the compound `CC(C)(C)OC(=O)N[C@@H](Cc1nnc(-c2ccccc2O)o1)c1ccccc1` [Compound 4b, Tert-Butyl (S)-(2-(5-(2-hydroxyphenyl)-1,3,4-oxadiazol-2-yl)-1-phenylethyl) carbamate], the IC50 is 19.1 ± 0.88 µM and the “% Inhibition” value stood at 93.5%. On the same counts, the results for `CC(C)(C)OC(=O)N[C@@H](Cc1nnc(-c2ccc(Cl)cc2)o1)c1ccccc1` [Compound 4l, Tert-Butyl (S)-(2-(5-(4-chlorophenyl)-1,3,4-oxadiazol-2-yl)-1-phenylethyl) carbamate] are 53.6 ± 0.96 µM and 67.6%. As to `COc1ccc(OC)c(-c2nnc(C[C@H](NC(=O)OC(C)(C)C)c3ccccc3)o2)c1` [Compound 4k, Tert-Butyl (S)-(2-(5-(2,5-dimethoxyphenyl)-1,3,4-oxadiazol-2-yl)-1-phenylethyl) carbamate], the IC50 was 22.4 ± 1.43 µM and the “% Inhibition” value came out at 87.8%.

As to “Tert-Butyl(S)-(1-phenyl-2-(5-phenyl-1,3,4-oxadiazol-2-yl)ethyl) carbamate [Compound 4c]”, the IC50 was found to be 13.8 ± 0.64 µM and the “% Inhibition” value was determined as 95.5%.
